Results taken from PubChem BioAssay (NCI).
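Values below derive from 48-hour exposures of cells grown in 96-well plates, with endpoints linearly interpolated between the two concentrations bracketing the appropriate inhibition level. TGI denotes the concentration required for complete inhibition of growth.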

Legend:
Assay in all cases: NCI tumour cell line growth inhibition, 48 h
M14 melanoma = system: M14 melanoma
TK-10 renal = system: TK-10 renal
SF-295 CNS = system: SF-295 CNS
UACC-257 melanoma = system: UACC-257 melanoma
BT-549 breast = system: BT-549 breast
ACHN renal = system: ACHN renal
NCI/ADR-RES ovarian = system: NCI/ADR-RES ovarian
OVCAR-3 ovarian = system: OVCAR-3 ovarian
SK-MEL-28 melanoma = system: SK-MEL-28 melanoma
OVCAR-5 ovarian = system: OVCAR-5 ovarian
NCI-H522 lung = system: NCI-H522 lung
CCRF-CEM leukemia = system: CCRF-CEM leukemia
SK-OV-3 ovarian = system: SK-OV-3 ovarian
OVCAR-4 ovarian = system: OVCAR-4 ovarian
MDA-MB-435 = system: MDA-MB-435
HCC-2998 colon = system: HCC-2998 colon
MOLT-4 leukemia = system: MOLT-4 leukemia

SMILES | TGI (M14 melanoma) [µM] | TGI (TK-10 renal) [µM] | TGI (SF-295 CNS) [µM] | TGI (UACC-257 melanoma) [µM] | TGI (BT-549 breast) [µM] | TGI (ACHN renal) [µM] | TGI (NCI/ADR-RES ovarian) [µM] | TGI (OVCAR-3 ovarian) [µM] | TGI (SK-MEL-28 melanoma) [µM] | TGI (OVCAR-5 ovarian) [µM] | TGI (NCI-H522 lung) [µM] | TGI (CCRF-CEM leukemia) [µM] | TGI (SK-OV-3 ovarian) [µM] | TGI (OVCAR-4 ovarian) [µM] | TGI (MDA-MB-435) [µM] | TGI (HCC-2998 colon) [µM] | TGI (MOLT-4 leukemia) [µM]
S=c1[nH]nc(NNc2ccccc2)n1Nc1ccccc1 | > 100 | > 100 | > 100 | > 69.3 | > 100 | > 100 | > 100 | > 100 | > 100 | > 100 | > 100 | 42 | > 100 | > 100 | > 100 | > 100 | 
O=c1ccn(C2OC(CN(O)CCC3C(CO)OC(n4ccc(=O)[nH]c4=O)C3O)C(O)C2O)c(=O)[nH]1 (stereo unspecified) | > 100 | > 100 | > 100 | > 100 | > 100 | > 100 | > 100 | > 100 | > 100 | > 100 |  | > 100 | > 100 | > 100 | > 100 | > 100 | > 100
O=C(CSC1=NNC2(C(=O)N1)c1ccccc1-c1ccccc12)NC(=S)Nc1ccccc1 | > 10 | > 10 | > 10 | > 10 | > 10 | > 10 | > 10 |  | > 10 | > 10 | > 10 | > 10 | > 10 | > 10 | > 10 | > 10 | > 10
CC(=O)ON(C(C)=O)c1ccc(-c2nc3ccccc3s2)cc1C | > 100 | > 100 | > 100 | > 100 | > 100 | > 100 | > 100 | > 100 | > 100 | 55.2 | > 100 | > 100 |  | > 100 | > 100 | > 100 | > 100
Cc1c(C)c(S(=O)(=O)N(CCCCCON)OCCCN)c(C)c2c1OC(C)(C)CC2 | 18.8 | 27.5 | 29.3 | 29.5 | 29.3 | 30 | 31 | 28.7 | 32.2 | 28.2 | 31.6 | 3.47 | 28.1 | 21.5 | 24.8 |  | 30
COC(=O)c1c(-c2ccccc2)c2sc3ccccc3n2c1N | > 100 | > 100 | > 100 | > 100 | > 100 | > 100 | > 100 | > 100 | > 100 | > 100 | 73.2 | > 100 | > 100 | > 100 | > 100 | > 100 | 
c1ccc(CC2(c3cc4ccccc4[nH]3)OCCO2)nc1 | > 100 | > 100 | > 100 | > 100 | > 100 | > 100 | > 100 | > 100 | > 100 | > 100 | > 100 | > 100 | > 100 |  | > 100 |  | > 100
